Earlier results, collected in PMC5613053 (Investigational New Drugs, 2017).
pIC50: −log10 of the molar value.

Key:
MV4–11-luc cells = tested on: MV4–11-luc cells; set-up: method as in PMID 24046014; details: maximum tolerated dose; cited from earlier work
MV4–11 cells = details: read-out: Concentration inhibiting growth of MV4–11 cells; cited from earlier work

Question: With CC1(COc2ccc3c(c2)ncn3-c2ccc3cccc(N4CCC(N)CC4)c3n2)COC1 [crenolanib] as the compound, how does the “Efficacy in xenograft model” value (MV4–11-luc cells) read?
Answer: limited efficacy

Question: And the pIC50 (MV4–11 cells)?
Answer: 8.89
